# Experimental data as given in publication PMC8474119, “Discovery and SAR Evolution of Pyrazole Azabicyclo[3.2.1]octane Sulfonamides as a Novel Class of Non-Covalent N-Acylethanolamine-Hydrolyzing Acid Amidase (NAAA) Inhibitors for Oral Administration” (Journal of Medicinal Chemistry, 2021).
# “And” between values parts separate entries of the source, which are not always exact repeats. Equal values may be shown once.
# Target: T1, h-NAAA (Homo sapiens, UniProt Q02083)
# T1 construct: made in house; host or cells: HEK-293 cells stably overexpressing human NAAA; enzyme-enriched (lysosomal) lysate
# T1 sequence (Q02083 29-125 limits assumed): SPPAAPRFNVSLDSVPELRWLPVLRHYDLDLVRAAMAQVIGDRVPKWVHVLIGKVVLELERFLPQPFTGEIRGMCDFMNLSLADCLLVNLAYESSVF
# T1 sequence (Q02083 126-359 limits assumed): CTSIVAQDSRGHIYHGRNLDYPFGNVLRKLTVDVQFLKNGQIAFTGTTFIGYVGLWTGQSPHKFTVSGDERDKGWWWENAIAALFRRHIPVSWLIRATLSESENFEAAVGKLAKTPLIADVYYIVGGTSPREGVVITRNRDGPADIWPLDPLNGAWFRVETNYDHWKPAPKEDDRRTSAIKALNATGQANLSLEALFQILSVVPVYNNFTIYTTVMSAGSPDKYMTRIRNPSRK
# Assay: Fluorogenic human-NAAA assay (h-NAAA, fluo.)
# Assay type: biochemical
# Conditions: for IC50: mean ± SD (n ≥ 3), n.a.: not active @50 μM (<10% inhibition)
# Method: Human recombinant proteins were obtained from HEK-293 stable overexpressing human NAAA, AC, and FAAH-1 cell lines, respectively. Cells were grown in Dulbecco’s modified Eagle medium (DMEM) containing 10% FBS, 1% glutamine, 1 mM sodium pyruvate, and 500 μg/mL geneticin (G418). To obtain a high-density cell proliferation, h-NAAA-HEK-293 cells were grown in BelloCell-500 bottle, a compact bioreactor. On the contrary, h-AC and h-FAAH-1-HEK-293 cells were grown in 150 mm dishes and scraped off with cold PBS 1× pH 7.4 at 80% confluence. Cell pellets were collected and stored at −80 °C until protein preparation.
# HEK-293 cells stably transfected with the human NAAA or human AC coding sequences were used as the enzyme source. Cells were suspended in 20 mM Tris-HCl (pH 7.4) with 0.32 M sucrose, sonicated, and centrifuged at 800g for 30 min at 4 °C. Supernatants were then centrifuged at 12,000g for 30 min at 4 °C. Pellets were resuspended in PBS buffer (pH 7.4) and subjected to three freeze-thaw cycles at −80 °C. The suspension was finally centrifuged at 105,000g for 1 h at 4 °C, supernatants were collected, protein concentration was measured, and samples were aliquoted and stored at −80 °C until use.
# The assay was run in 96-well microplates (Black OptiPlate-96 F; PerkinElmer, Massachusetts, USA), in a total reaction volume of 200 μL. h-NAAA protein preparation (4 μg) was preincubated for 30 min with various concentrations of test compounds or vehicle control (DMSO 5%) in 100 mM citrate/phosphate buffer (pH 4.5) containing 3.0 mM DTT, 0.1% NP40, 0.05% BSA, and 150 mM NaCl. The background (no activity) samples were prepared using assay buffer without h-NAAA and DMSO (5%). N-(4-methyl-2-oxo-chromen-7-yl)-hexadecanamide (PAMCA)[60] was used as a substrate (2 μM) and the reaction was carried out for 50 min at 37 °C. Fluorescence was measured with EnVision 2014 Multilabel Reader (PerkinElmer, Massachusetts, USA) using an excitation wavelength of 355 nm and an emission of 460 nm. IC50 values were calculated by non-linear regression analysis of log[concentration]/response curves generated with mean replicate values using a four-parameter Hill equation curve fitting with GraphPad Prism 5 (GraphPad Software Inc., CA, USA).
SMILES,IC50 (h-NAAA (fluo.)),"h-NAAA inhibitory activity, in words (h-NAAA (fluo.))",also measured
"Cc1n[nH]c(C)c1S(=O)(=O)N1CCC(Oc2cnccn2)CC1 [Compound 1, 2-((1-((3,5-Dimethyl-1H-pyrazol-4-yl)sulfonyl)piperidin-4-yl)oxy)pyrazine]",1.09 ± 0.163 µM,,"LipE (LipE = pIC50 – c Log P (h-NAAA)): 6.3; pIC50 (Table S1, h-NAAA (fluo.)): 5.96"
"Cc1n[nH]cc1S(=O)(=O)N1CCC(Oc2cnccn2)CC1 [Compound 2, 2-((1-((3-Methyl-1H-pyrazol-4-yl)sulfonyl)piperidin-4-yl)oxy)pyrazine]",,devoid of any activity,
"O=S(=O)(c1cn[nH]c1)N1CCC(Oc2cnccn2)CC1 [Compound 3, 2-((1-((1H-Pyrazol-4-yl)sulfonyl)piperidin-4-yl)oxy)pyrazine]",,devoid of any activity,
"Cc1nn(C)c(C)c1S(=O)(=O)N1CCC(Oc2cnccn2)CC1 [Compound 4, 2-((1-((1,3,5-Trimethyl-1H-pyrazol-4-yl)sulfonyl)piperidin-4-yl)oxy)pyrazine]",,complete loss of inhibitory effect,
"Cc1noc(C)c1S(=O)(=O)N1CCC(Oc2cnccn2)CC1 [Compound 5, 3,5-Dimethyl-4-((4-(pyrazin-2-yloxy)piperidin-1-yl)sulfonyl)isoxazole]",,complete loss of inhibitory effect,
"Cc1cnn(C)c1S(=O)(=O)N1CCC(Oc2cnccn2)CC1 [Compound 6, 2-((1-((1,4-Dimethyl-1H-pyrazol-5-yl)sulfonyl)piperidin-4-yl)oxy)pyrazine]",,complete loss of inhibitory effect,
"Cc1cccc(C)c1S(=O)(=O)N1CCC(Oc2cnccn2)CC1 [Compound 7, 2-((1-((2,6-Dimethylphenyl)sulfonyl)piperidin-4-yl)oxy)pyrazine]",4.48 ± 0.94 µM,,
"CCc1n[nH]c(C)c1S(=O)(=O)N1CCC(Oc2cnccn2)CC1 [Compound 8, 2-((1-((3-Ethyl-5-methyl-1H-pyrazol-4-yl)sulfonyl)piperidin-4-yl)oxy)pyrazine]",0.62 ± 0.12 µM,,
"CCCc1n[nH]c(C)c1S(=O)(=O)N1CCC(Oc2cnccn2)CC1 [Compound 9, 2-((1-((5-Methyl-3-propyl-1H-pyrazol-4-yl)sulfonyl)piperidin-4-yl)oxy)pyrazine]",0.33 ± 0.04 µM,,
"CCCCc1n[nH]c(C)c1S(=O)(=O)N1CCC(Oc2cnccn2)CC1 [Compound 10, 2-((1-((3-Butyl-5-methyl-1H-pyrazol-4-yl)sulfonyl)piperidin-4-yl)oxy)pyrazine]",0.91 ± 0.13 µM,,
"Cc1[nH]nc(C(C)C)c1S(=O)(=O)N1CCC(Oc2cnccn2)CC1 [Compound 11, 2-((1-((3-isoPropyl-5-methyl-1H-pyrazol-4-yl)sulfonyl)piperidin-4-yl)oxy)pyrazine]",0.64 ± 0.14 µM,,
"Cc1[nH]nc(C(C)(C)C)c1S(=O)(=O)N1CCC(Oc2cnccn2)CC1 [Compound 12, 2-((1-((3-(tert-Butyl)-5-methyl-1H-pyrazol-4-yl)sulfonyl)piperidin-4-yl)oxy)pyrazine]",0.78 ± 0.12 µM,,
"COc1n[nH]c(C)c1S(=O)(=O)N1CCC(Oc2cnccn2)CC1 [Compound 13, 2-((1-((3-Methoxy-5-methyl-1H-pyrazol-4-yl)sulfonyl)piperidin-4-yl)oxy)pyrazine]",,no detectable activity,
"Cc1[nH]nc(C(F)(F)F)c1S(=O)(=O)N1CCC(Oc2cnccn2)CC1 [Compound 14, 2-((1-((5-Methyl-3-(trifluoromethyl)-1H-pyrazol-4-yl)sulfonyl)piperidin-4-yl)oxy)pyrazine]",3.29 ± 0.23 µM,,
"CCc1n[nH]c(CC)c1S(=O)(=O)N1CCC(Oc2cnccn2)CC1 [Compound 15, 2-((1-((3,5-Diethyl-1H-pyrazol-4-yl)sulfonyl)piperidin-4-yl)oxy)pyrazine]",1.11 ± 0.31 µM,,
"Cc1n[nH]c(C)c1C(=O)N1CCC(Oc2cnccn2)CC1 [Compound 16, (3,5-Dimethyl-1H-pyrazol-4-yl)(4-(pyrazin-2-yloxy)piperidin-1-yl)methanone]",,complete loss of activity,
"Cc1n[nH]c(C)c1S(=O)(=O)N1CC(Oc2cnccn2)C1 [Compound 18, 2-((1-((3,5-Dimethyl-1H-pyrazol-4-yl)sulfonyl)azetidin-3-yl)oxy)pyrazine]",,complete loss of enzyme inhibition,
"Cc1n[nH]c(C)c1S(=O)(=O)N(C)CCCOc1cnccn1 [Compound 19, N,3,5-Trimethyl-N-(3-(pyrazin-2-yloxy)propyl)-1H-pyrazole-4-Sulfonamide]",4.29 ± 0.97 µM,,
"Cc1n[nH]c(C)c1S(=O)(=O)N1[C@@H]2CC[C@H]1C[C@@H](Oc1cnccn1)C2 [Compound 20, (1R,3r,5S)-8-((3,5-Dimethyl-1H-pyrazol-4-yl)sulfonyl)-3-(pyrazin-2-yloxy)-8-azabicyclo[3.2.1]octane]",0.23 ± 0.01 µM,,
"Cc1n[nH]c(C)c1S(=O)(=O)N1[C@@H]2CC[C@H]1C[C@H](Oc1cnccn1)C2 [Compound 21, (1R,3s,5S)-8-((3,5-Dimethyl-1H-pyrazol-4-yl)sulfonyl)-3-(pyrazin-2-yloxy)-8-azabicyclo[3.2.1]octane]",,devoid of any activity,
"Cc1n[nH]c(C)c1S(=O)(=O)N1CCC(Nc2cnccn2)CC1 [Compound 22, N-(1-((3,5-Dimethyl-1H-pyrazol-4-yl)sulfonyl)piperidin-4-yl)pyrazin-2-amine]",,abolished the inhibitory activity,
"Cc1n[nH]c(C)c1S(=O)(=O)N1CCC(Cc2cnccn2)CC1 [Compound 23, 2-((1-((3,5-Dimethyl-1H-pyrazol-4-yl)sulfonyl)piperidin-4-yl)methyl)pyrazine]",,abolished the inhibitory activity,
"Cc1n[nH]c(C)c1S(=O)(=O)N1CCC(c2cnccn2)CC1 [Compound 24, 2-(1-((3,5-Dimethyl-1H-pyrazol-4-yl)sulfonyl)piperidin-4-yl)pyrazine]",,abolished the inhibitory activity,
"Cc1n[nH]c(C)c1S(=O)(=O)N1[C@@H]2CCC[C@H]1C[C@@H](Oc1cnccn1)C2 [Compound 25, (1R,3r,5S)-9-((3,5-Dimethyl-1H-pyrazol-4-yl)sulfonyl)-3-(pyrazin-2-yloxy)-9-azabicyclo[3.3.1]nonane]",0.37 ± 0.03 µM,,
"Cc1n[nH]c(C)c1S(=O)(=O)N1[C@@H]2COC[C@H]1C[C@@H](Oc1cnccn1)C2 [Compound 26, (1R,5S,7s)-9-((3,5-Dimethyl-1H-pyrazol-4-yl)sulfonyl)-7-(pyrazin-2-yloxy)-3-oxa-9-azabicyclo[3.3.1]nonane]",2.33 ± 0.83 µM,,
"Cc1n[nH]c(C)c1S(=O)(=O)N1C[C@H]2CC[C@@H](C1)[C@H]2Oc1cnccn1 [Compound 27, (1R,5S,8r)-3-((3,5-Dimethyl-1H-pyrazol-4-yl)sulfonyl)-8-(pyrazin-2-yloxy)-3-azabicyclo[3.2.1]octane]",15.4 ± 3.26 µM,,
"Cc1n[nH]c(C)c1S(=O)(=O)N1C[C@H]2CCC[C@@H](C1)[C@H]2Oc1cnccn1 [Compound 28, (1R,5S,9r)-3-((3,5-Dimethyl-1H-pyrazol-4-yl)sulfonyl)-9-(pyrazin-2-yloxy)-3-azabicyclo[3.3.1]nonane]",,inactive,
"Cc1n[nH]c(C)c1S(=O)(=O)N1C[C@H]2CCC[C@@H](C1)[C@@H]2Oc1cnccn1 [Compound 29, (1R,5S,9s)-3-((3,5-Dimethyl-1H-pyrazol-4-yl)sulfonyl)-9-(pyrazin-2-yloxy)-3-azabicyclo[3.3.1]nonane]",0.69 ± 0.06 µM,,
"Cc1n[nH]c(C)c1S(=O)(=O)N1[C@@H]2CC[C@H]1C[C@@H](Oc1ccccn1)C2 [Compound 30, (1R,3r,5S)-8-((3,5-Dimethyl-1H-pyrazol-4-yl)sulfonyl)-3-(pyridin-2-yloxy)-8-azabicyclo[3.2.1]octane]",0.16 µM and 0.162 µM,,
"Cc1n[nH]c(C)c1S(=O)(=O)N1[C@@H]2CC[C@H]1C[C@@H](Oc1ccccc1)C2 [Compound 31, (1R,3r,5S)-8-((3,5-Dimethyl-1H-pyrazol-4-yl)sulfonyl)-3-phenoxy-8-azabicyclo[3.2.1]octane]",0.093 ± 0.02 µM,,
